Experimental data from article PMC8746695, “Zinc-Chelating Compounds as Inhibitors of Human and Bacterial Zinc Metalloproteases” (Molecules, 2021).
“Also recorded” adds a separate entry of the source. Like-named read-outs stand apart in the source and are kept apart here.

What was measured:
[1] = target: T1, human MT1-MMP/MMP-14 (catalytic domain) (Homo sapiens, UniProt P50281); assay: Inhibition of MMP-14, fluorescence quenched peptide substrate McaPLGL(Dpa)AR-NH2; format: biochemical; settings: for Ki: substrate McaPLGL(Dpa)AR-NH2 4 µM, 30 min pre-incubation at room temperature, calculated from IC50, read-out: Ki ± s.d. MMP-14; for effect of 100 μM compound on MMP-14 activity: pre-incubation 0-45 min
T1 construct: human MT1-MMP/MMP-14 (catalytic domain); purchased Calbiochem (San Diego, CA, USA)
Description: (§1) McaPLGL(Dpa)AR-NH2 was used as a substrate for MMP-9 and MMP-14, while McaRPPGFSAFK(Dnp)-OH was used as substrate for ALN, PLN and TLN. The reaction velocities/initial rates (v) were determined at 37 °C, at an excitation wavelength of 320 nm and an emission wavelength of 405 nm with a slit width of 10 nm using either a Perkin Elmer LS 50 Luminescence spectrometer and the FL WinLab Software Package (Perkin Elmer) or a Clario Star microplate reader (CLARIOstar® BMG LABTECH).
(§2) The test compounds were dissolved in 100% DMSO giving a concentration of 10 mM. A fixed substrate concentration of 4.0 µM in a total volume of 100 µL 0.1 M Hepes pH 7.5, 10 mM CaCl2, 0.005% Brij-35 and 1.0% DMSO, were used in all assays, except for ALN where the substrate concentration was 5.0 µM. The fixed enzyme concentrations were as follows; 0.05 nM MMP-9, 1.0 nM MMP-14, 1.4 nM ALN, 0.5 nM PLN and 0.21 nM TLN. Time-dependent inhibitory experiments without and with 100 μM of testing compounds were performed as follows. Compounds were either pre-incubated with the proteases for 15, 30 and 45 min at room temperature and the enzymatic reaction was started by adding the substrate, or not pre-incubated, i.e., the reaction was started by adding the protease to the mixture of substrate and compound. Control tests without compound present were performed in the same way. The reaction was followed for 30 min at 37 °C.
(§3) Enzymes with and without inhibitor were pre-incubated for 30 min at room temperature, and initial rate assays were performed as described above. Assays were performed using a Clario Star microplate reader (CLARIOstar® BMG LABTECH). The IC50 values were calculated in Graph Pad Prism 5 using Equation (1):(1) vi/v0=1/(1+10^(pIC50−pI)) where vi is the enzyme activity in the presence of inhibitor, v0 the activity in the absence of inhibitor, pI = −log [Inhibitor] in M and pIC50 = −log IC50 in M. All experiments were performed in at least triplicate.

recombinant human MMP-9 = target: T2, recombinant human MMP-9 (Homo sapiens, UniProt P14780); assay: Inhibition of MMP-9, fluorescence quenched peptide substrate McaPLGL(Dpa)AR-NH2; format: biochemical; settings: for Ki: substrate McaPLGL(Dpa)AR-NH2 4 µM, 30 min pre-incubation at room temperature, calculated from IC50, read-out: Ki ± s.d. MMP-9; for effect of 100 μM compound on MMP-9 activity: pre-incubation 0-45 min
T2 construct: made in house; host or cells: Sf9 insect cells
T2 sequence (P14780 107-707 limits assumed): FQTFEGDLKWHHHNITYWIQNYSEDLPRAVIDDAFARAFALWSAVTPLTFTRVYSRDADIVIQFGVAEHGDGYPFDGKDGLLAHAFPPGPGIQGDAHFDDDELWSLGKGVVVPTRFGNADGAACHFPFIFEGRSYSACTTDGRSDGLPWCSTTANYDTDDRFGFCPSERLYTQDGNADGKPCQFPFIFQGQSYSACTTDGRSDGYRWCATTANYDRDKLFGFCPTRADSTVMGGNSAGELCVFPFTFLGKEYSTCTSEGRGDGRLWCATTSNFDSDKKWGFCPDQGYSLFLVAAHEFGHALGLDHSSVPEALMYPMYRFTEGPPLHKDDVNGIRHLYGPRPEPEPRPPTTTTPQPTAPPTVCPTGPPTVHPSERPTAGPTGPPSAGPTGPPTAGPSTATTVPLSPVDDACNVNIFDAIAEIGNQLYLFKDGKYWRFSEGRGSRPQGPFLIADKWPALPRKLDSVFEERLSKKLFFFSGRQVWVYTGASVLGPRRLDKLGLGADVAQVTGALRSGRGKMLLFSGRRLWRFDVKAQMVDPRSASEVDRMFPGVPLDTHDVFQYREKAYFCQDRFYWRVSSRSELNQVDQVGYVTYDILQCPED
Description: The expression and purification of recombinant human full-length proMMP-9 (rpMMP-9) from Sf9 insect cells were performed as described previously. The amount of proMMP-9 was estimated spectrophotometrically at 280 nm using ε280 nm = 114.36 mM^−1 cm^−1 [48]. Activation of the recombinant proMMP-9 was performed with APMA (auto-activation) as described previously. The amount of active MMP-9 was determined by active site titration using galardin also described previously.
as §1, §2, §3

aureolysin (ALN) = target: T3, aureolysin (ALN) (Staphylococcus aureus, UniProt P81177); assay: Inhibition of aureolysin (ALN), substrate McaRPPGFSAFK(Dnp)-OH; format: biochemical; settings: for effect of 100 μM compound on ALN activity: pre-incubation 0-45 min
T3 construct: purchased BioCentrum Ltd. (Kraków, Poland)
T3 sequence (P81177 209-509): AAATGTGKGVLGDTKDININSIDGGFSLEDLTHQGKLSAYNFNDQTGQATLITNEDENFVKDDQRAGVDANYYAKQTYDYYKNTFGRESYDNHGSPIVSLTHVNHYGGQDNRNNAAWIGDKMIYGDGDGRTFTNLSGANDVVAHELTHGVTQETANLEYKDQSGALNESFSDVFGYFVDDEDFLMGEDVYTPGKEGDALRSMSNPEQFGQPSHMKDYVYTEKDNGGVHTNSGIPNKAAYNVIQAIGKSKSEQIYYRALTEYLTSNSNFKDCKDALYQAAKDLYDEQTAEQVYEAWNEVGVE
Description: as §1, §2, §3

pseudolysin (PLN) = target: T4, pseudolysin (PLN) (Pseudomonas aeruginosa, UniProt P14756); assay: Inhibition of pseudolysin (PLN), substrate McaRPPGFSAFK(Dnp)-OH; format: biochemical; settings: for effect of 100 μM compound on PLN activity: pre-incubation 0-45 min
T4 construct: purchased Calbiochem (San Diego, CA, USA)
T4 sequence (P14756 198-498): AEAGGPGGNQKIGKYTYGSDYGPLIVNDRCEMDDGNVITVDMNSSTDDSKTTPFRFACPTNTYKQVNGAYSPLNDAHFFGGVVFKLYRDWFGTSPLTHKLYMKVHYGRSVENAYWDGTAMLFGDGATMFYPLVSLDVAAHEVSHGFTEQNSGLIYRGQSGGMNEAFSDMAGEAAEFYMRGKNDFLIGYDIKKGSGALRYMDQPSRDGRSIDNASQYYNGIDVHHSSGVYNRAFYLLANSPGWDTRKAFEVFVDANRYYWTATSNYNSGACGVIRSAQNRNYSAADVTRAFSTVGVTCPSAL
Description: as §1, §2, §3

thermolysin (TLN) = target: T5, thermolysin (TLN) (Bacillus thermoproteolyticus, UniProt P00800); assay: Inhibition of thermolysin (TLN), substrate McaRPPGFSAFK(Dnp)-OH; format: biochemical; settings: for Ki: substrate McaRPPGFSAFK(Dnp)-OH 4 µM, 30 min pre-incubation at room temperature, calculated from IC50, read-out: Ki ± s.d. TLN; for effect of 100 μM compound on TLN activity: pre-incubation 0-45 min
T5 construct: purchased Calbiochem (San Diego, CA, USA)
T5 sequence (P00800 233-548): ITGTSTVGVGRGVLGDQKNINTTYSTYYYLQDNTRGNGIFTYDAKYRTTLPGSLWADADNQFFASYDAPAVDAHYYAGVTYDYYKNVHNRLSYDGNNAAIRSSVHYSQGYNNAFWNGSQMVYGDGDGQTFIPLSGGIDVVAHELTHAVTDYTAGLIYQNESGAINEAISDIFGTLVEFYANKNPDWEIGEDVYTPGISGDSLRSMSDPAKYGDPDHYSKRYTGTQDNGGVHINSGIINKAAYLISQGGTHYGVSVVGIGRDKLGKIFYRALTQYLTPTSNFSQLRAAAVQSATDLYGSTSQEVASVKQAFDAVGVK
Description: as §1, §2, §3

[2] = cited from earlier work
VIM-2 = test system: VIM-2; parameters: method as in PMID 32179522; settings: cited from earlier work
NDM-1 = test system: NDM-1; parameters: method as in PMID 32179522; settings: cited from earlier work
Gram-negative pathogens = test system: Gram-negative pathogens; parameters: method as in PMID 32179522; settings: cited from earlier work
[3] = cited from earlier work; remark: listed apart in the source

CC(N)C(=O)NC(C)C(=O)NCCc1ccc(NC(=O)c2ccc(CN(Cc3ccccn3)Cc3ccccn3)nc2)cc1 (stereo not shown) [Zn155]
Ki [1]: 2.4 ± 0.2 µM | Ki (recombinant human MMP-9): 26 ± 6 µM | Ki (aureolysin (ALN)): 60 ± 6 µM | Ki (pseudolysin (PLN)): 6 ± 2 µM

O=C(NCCc1ccc(NC(=O)c2ccc(CN(Cc3ccccn3)Cc3ccccn3)nc2)cc1)c1ccc(CN(Cc2ccccn2)Cc2ccccn2)nc1 [Zn175]
Ki (recombinant human MMP-9): 6 ± 2 µM | Ki (aureolysin (ALN)): 14 ± 1 µM | Ki (pseudolysin (PLN)): 7 ± 2 µM

O=C(O)c1ccc(CN(CCN(Cc2ccccn2)Cc2ccccn2)Cc2ccc(C(=O)O)cn2)nc1 [Zn239]
Ki [1]: 6.1 ± 0.5 µM | Ki (recombinant human MMP-9): 58 ± 14 µM | Ki (pseudolysin (PLN)): 5 ± 2 µM | Ki (thermolysin (TLN)): 32 ± 5 µM

CN(C[C@H](O)[C@@H](O)[C@H](O)[C@H](O)CO)C(=O)c1ccc(CN(Cc2ccccc2)Cc2ccccn2)nc1 [Zn223]
effect of 100 μM compound on MMP-14 activity [1]: weaker binding than Zn148; also recorded: binding was prevented | effect of 100 μM compound on MMP-9 activity (recombinant human MMP-9): weaker binding than Zn148 | effect of 100 μM compound on ALN activity (aureolysin (ALN)): no effect | effect of 100 μM compound on PLN activity (pseudolysin (PLN)): weaker binding than Zn148 | effect of 100 μM compound on TLN activity (thermolysin (TLN)): no effect | Kd ([2]; read-out: Kd (zinc)): 100 nM | inactivation of MBL VIM-2 (VIM-2): reduced capability to inactivate | inactivation of MBL NDM-1 (NDM-1): reduced capability to inactivate | reversal of carbapenem resistance in Gram-negative pathogens (Gram-negative pathogens): lacked the ability to reverse carbapenem resistance

COC(=O)c1ccc(CN(Cc2cccs2)Cc2cccs2)s1 [Zn215]
effect of 100 μM compound on MMP-14 activity [1]: weak inhibition or lack of inhibition | effect of 100 μM compound on PLN activity (pseudolysin (PLN)): weak inhibition or lack of inhibition

COC(=O)c1ccc(CN(Cc2ccccn2)Cc2ccccn2)nc1 [Zn145]
Ki [1]: 1.5 ± 0.1 µM | Ki (pseudolysin (PLN)): 12 ± 4 µM

c1ccc(CNCc2ccccn2)nc1 [DPA, di(2-pyridinemethyl)amine, reference compound]
effect of 100 μM compound on MMP-14 activity [1]: greatly enhanced | Ki (pseudolysin (PLN)): 4 ± 1 µM | effect of 100 μM compound on PLN activity (pseudolysin (PLN)): Moderately strong inhibition | Kd ([2]; read-out: Kd (zinc-binder)): ~10 nM

CN(C[C@H](O)[C@@H](O)[C@H](O)[C@H](O)CO)C(=O)c1ccc(CN(Cc2ccccn2)Cc2ccccn2)nc1 [Zn148]
Ki [1]: 8.6 ± 0.7 µM | effect of 100 μM compound on ALN activity (aureolysin (ALN)): no or only a limited effect | IC50 (pseudolysin (PLN)): 6.07 ± 0.08 µM | Ki (pseudolysin (PLN)): 5 ± 2 µM | effect of 100 μM compound on TLN activity (thermolysin (TLN)): no or only a limited effect | Kd ([2]; read-out: Kd (zinc)): 0.001 nM | inactivation of MBL VIM-2 (VIM-2): irreversible inhibitor | inactivation of MBL NDM-1 (NDM-1): irreversible inhibitor | reversal of carbapenem resistance in Gram-negative pathogens (Gram-negative pathogens): reverse carbapenem resistance | acute toxicity ([3]; female BALB/c mice): limited in vivo toxicity | acute toxicity ([3]; mouse, in vivo): without acute toxicity

COC(=O)Cc1ccc(NC(=O)c2ccc(CN(Cc3ccccn3)Cc3ccccn3)nc2)cc1 [Zn244]
Ki [1]: 4 ± 0.3 µM | Ki (recombinant human MMP-9): 22 ± 6 µM | IC50 (pseudolysin (PLN)): 4.46 ± 0.05 µM | Ki (pseudolysin (PLN)): 4 ± 1 µM

O=C(O)c1ccc(CN(Cc2ccccn2)Cc2ccccn2)nc1 [Zn146]
Ki [1]: 3.8 ± 0.3 µM | Ki (recombinant human MMP-9): 21 ± 5 µM | Ki (aureolysin (ALN)): 25 ± 2 µM | Ki (pseudolysin (PLN)): 4 ± 1 µM

CC(=O)OC[C@@H](OC(C)=O)[C@@H](OC(C)=O)[C@H](OC(C)=O)[C@H](CN(C)C(=O)c1ccc(CN(Cc2ccccn2)Cc2ccccn2)nc1)OC(C)=O [Zn224]
Ki [1]: 4.5 ± 0.4 µM | Ki (pseudolysin (PLN)): 13 ± 4 µM

O=C(NCc1ccc(CN(Cc2ccccn2)Cc2ccccn2)nc1)C1OC(O)C(O)C(O)C1O (stereo not shown) [Zn227]
Ki [1]: 4.8 ± 0.4 µM | Ki (recombinant human MMP-9): 77 ± 19 µM | Ki (pseudolysin (PLN)): 9 ± 3 µM | Ki (thermolysin (TLN)): 11 ± 2 µM

CCN(C[C@H](O)[C@@H](O)[C@H](O)[C@H](O)CO)C(=O)c1ccc(CN(Cc2ccccn2)Cc2ccccn2)nc1 [Zn225]
Ki [1]: 4.5 ± 0.4 µM | Ki (recombinant human MMP-9): 28 ± 7 µM | Ki (pseudolysin (PLN)): 5 ± 2 µM | Ki (thermolysin (TLN)): 9 ± 2 µM

NCCc1ccc(NC(=O)CN(CCN(Cc2ccccn2)Cc2ccccn2)Cc2ccccn2)cc1 [Zn45]
Ki [1]: 2.5 ± 0.2 µM | Ki (pseudolysin (PLN)): 2.8 ± 0.9 µM | Ki (thermolysin (TLN)): 7 ± 1 µM

CC(N)C(=O)NC(C)C(=O)N1CCN(C(=O)c2ccc(CN(Cc3ccccn3)Cc3ccccn3)nc2)CC1 (stereo not shown) [Zn177]
Ki [1]: 11.2 ± 0.9 µM | Ki (recombinant human MMP-9): 56 ± 14 µM | Ki (pseudolysin (PLN)): 11 ± 4 µM

COC(=O)c1ccc(CN(Cc2cccs2)Cc2cccs2)nc1 [Zn216]
effect of 100 μM compound on MMP-14 activity [1]: weak inhibition or lack of inhibition | effect of 100 μM compound on PLN activity (pseudolysin (PLN)): weak inhibition or lack of inhibition

CN(C[C@H](O)[C@@H](O)[C@H](O)[C@H](O)CO)C(=O)c1ccc(CN(Cc2ccccc2)Cc2ccccc2)nc1 [Zn222]
effect of 100 μM compound on MMP-14 activity [1]: weaker binding than Zn148; also recorded: binding was prevented | effect of 100 μM compound on MMP-9 activity (recombinant human MMP-9): weaker binding than Zn148 | effect of 100 μM compound on ALN activity (aureolysin (ALN)): no effect | effect of 100 μM compound on PLN activity (pseudolysin (PLN)): weaker binding than Zn148 | effect of 100 μM compound on TLN activity (thermolysin (TLN)): no effect | Kd ([2]; read-out: Kd (zinc)): 1000 nM | inactivation of MBL VIM-2 (VIM-2): did not inactivate | inactivation of MBL NDM-1 (NDM-1): did not inactivate | reversal of carbapenem resistance in Gram-negative pathogens (Gram-negative pathogens): lacked the ability to reverse carbapenem resistance

O=C(NC[C@H](O)[C@@H](O)[C@H](O)[C@H](O)CO)c1ccc(CN(Cc2ccccn2)Cc2ccccn2)nc1 [Zn230]
Ki [1]: 3.5 ± 0.3 µM | Ki (recombinant human MMP-9): 22 ± 6 µM | Ki (aureolysin (ALN)): 20 ± 2 µM | Ki (pseudolysin (PLN)): 1.1 ± 0.3 µM | Ki (thermolysin (TLN)): 12 ± 2 µM
